# Measured values reported in article PMC4425353 (Science (New York, N.Y.), 2015).
# Legend:
# [1] = target: T1, NHR-80 (Caenorhabditis elegans, UniProt Q8ITW8); experiment: intrinsic fluorescence quenching of GST-NHR-80 with increasing OEA; assay type: binding
# T1 sequence (Q8ITW8 1-504): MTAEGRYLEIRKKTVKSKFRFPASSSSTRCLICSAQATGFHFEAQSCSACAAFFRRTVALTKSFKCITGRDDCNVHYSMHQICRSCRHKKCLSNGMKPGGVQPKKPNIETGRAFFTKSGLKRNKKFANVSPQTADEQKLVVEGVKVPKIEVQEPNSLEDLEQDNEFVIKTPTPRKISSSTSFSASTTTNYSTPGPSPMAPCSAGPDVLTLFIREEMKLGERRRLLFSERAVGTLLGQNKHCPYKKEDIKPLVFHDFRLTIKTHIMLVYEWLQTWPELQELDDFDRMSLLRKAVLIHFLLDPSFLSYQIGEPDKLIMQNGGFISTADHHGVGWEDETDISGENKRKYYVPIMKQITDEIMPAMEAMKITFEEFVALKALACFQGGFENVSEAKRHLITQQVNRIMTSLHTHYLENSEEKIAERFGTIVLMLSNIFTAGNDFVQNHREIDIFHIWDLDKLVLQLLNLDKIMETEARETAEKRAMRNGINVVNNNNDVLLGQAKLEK
# [2] = target: T2, LBP-8 (Caenorhabditis elegans, UniProt O02324); experiment: fluorescence displacement of […],8-ANS; assay type: binding
# T2 sequence (O02324 1-137): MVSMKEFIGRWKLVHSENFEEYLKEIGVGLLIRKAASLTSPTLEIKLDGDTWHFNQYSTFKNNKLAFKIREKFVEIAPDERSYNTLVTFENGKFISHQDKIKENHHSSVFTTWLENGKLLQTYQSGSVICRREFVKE
Compound,Kd [1],"fluorescence displacement of 1,8-ANS [2]"
"CCCCCCCC/C=C\CCCCCCCC(=O)NCCO [OEA, oleoylethanolamide]",7.84 µM,–
"CCCCC/C=C\C/C=C\C/C=C\CCCCCCC(=O)O [DGLA, dihomo-γ-linolenic acid]",–,"In fluorescence-based binding assays, all four lipids bound to LBP-8"
"CCCCC/C=C\C/C=C\C/C=C\C/C=C\CCCC(=O)O [AA, arachidonic acid]",–,"In fluorescence-based binding assays, all four lipids bound to LBP-8"
"CC/C=C\C/C=C\C/C=C\C/C=C\CCCCCCC(=O)O [ω-3 AA, ω-3 arachidonic acid]",–,"In fluorescence-based binding assays, all four lipids bound to LBP-8"
